Data on two compounds can be found in ChEMBL document CHEMBL4732135, “Structural and mechanistic insights into the inhibition of amyloid-β aggregation by Aβ fragment derived synthetic peptides” (Eur J Med Chem, 2021).

The source made the active and inactive calls. No cut-off for these calls is given here. Square brackets hold non-standard residues; d marks the D form. Peptide text beside a SMILES is read from it. 1Nal = N[C@@H](Cc1cccc2ccccc12)C(=O)O

The first data set has as its target Amyloid-beta precursor protein (Homo sapiens) (UniProt P05067). Put plainly: Inhibition of amyloid beta (1 to 42) (unknown origin) aggregation assessed as protein with beta sheet conformation at 10 uM measured after 24 hrs by circular dichroism analysis (reference value: 66.4%). Further details: scale not given: the % may be the effect or the level left.
Details: not given
For orientation: CD spectra are sensitive to the conformation of chiral molecules.
As to `CC[C@H](C)[C@H](NC(=O)[C@@H](NC(=O)[C@@H](N)Cc1cccc2ccccc12)C(C)C)C(=O)N[C@@H](C)C(=O)O` (H-[1Nal]VIA-OH), the Activity is 18.7%.

Another data set shares this target. Nature of the data set: Binding affinity to amyloid beta (1 to 42) (unknown origin) assessed as absence of fibrillar assembly at 10 uM measured after 24 hrs by STEM analysis.
Details: not given
`CC[C@H](C)[C@H](NC(=O)[C@@H](NC(=O)[C@@H](N)Cc1cccc2ccccc12)C(C)C)C(=O)N[C@@H](C)C(=O)O` (H-[1Nal]VIA-OH): the result was inactive.

In a further data set the test system is PC-12. Nature of the data set: Cytotoxicity against rat PC-12 cells assessed as reduction in cell viability at 20 uM measured after 6 hrs by MTT assay. Conditions: pc-12, 6 h. The format is cell-based. In general terms: Tetrazolium assays rely on reduction of a dye to a coloured formazan, in cell work by metabolically active cells.
As for `CC[C@H](C)[C@H](NC(=O)[C@H](Cc1ccccc1)NC(=O)[C@@H](N)Cc1ccccc1)C(=O)N[C@@H](C)C(=O)O` (H-FFIA-OH), the Activity result is “Non-Toxic”.

Another data set deals with Amyloid-beta precursor protein (Homo sapiens) (UniProt P05067). Nature of the data set: Inhibition of amyloid beta (1 to 42) (unknown origin) assessed as reduction in peptide aggregation at 4 uM measured after 24 hrs by thioflavin-T fluorescence assay relative to control.
Chain of Amyloid-beta precursor protein (Homo sapiens) (P05067 whole entry): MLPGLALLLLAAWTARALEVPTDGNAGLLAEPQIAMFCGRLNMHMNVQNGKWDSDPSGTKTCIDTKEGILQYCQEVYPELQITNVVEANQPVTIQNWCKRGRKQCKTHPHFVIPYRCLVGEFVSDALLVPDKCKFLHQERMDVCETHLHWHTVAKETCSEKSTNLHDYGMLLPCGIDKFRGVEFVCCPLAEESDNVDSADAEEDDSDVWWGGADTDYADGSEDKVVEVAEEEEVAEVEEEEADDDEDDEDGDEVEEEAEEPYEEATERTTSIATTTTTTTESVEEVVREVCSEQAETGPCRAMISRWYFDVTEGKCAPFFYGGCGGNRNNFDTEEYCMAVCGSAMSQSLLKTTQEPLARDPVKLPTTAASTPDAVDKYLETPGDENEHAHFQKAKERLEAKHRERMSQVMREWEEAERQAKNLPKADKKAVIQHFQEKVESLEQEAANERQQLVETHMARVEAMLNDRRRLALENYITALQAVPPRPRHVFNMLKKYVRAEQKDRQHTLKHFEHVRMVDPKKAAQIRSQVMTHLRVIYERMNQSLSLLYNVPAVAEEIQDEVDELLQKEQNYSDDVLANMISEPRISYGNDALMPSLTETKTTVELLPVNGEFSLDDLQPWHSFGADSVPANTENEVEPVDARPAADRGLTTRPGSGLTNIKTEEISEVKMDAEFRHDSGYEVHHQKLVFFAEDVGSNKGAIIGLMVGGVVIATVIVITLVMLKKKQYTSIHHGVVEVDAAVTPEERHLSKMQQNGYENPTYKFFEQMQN
Details: not given
Turning to `CC[C@H](C)[C@H](NC(=O)[C@H](Cc1ccccc1)NC(=O)[C@@H](N)Cc1ccccc1)C(=O)N[C@@H](C)C(=O)O` (H-FFIA-OH), the inhibition amounted to 97.2%.
Turning to `CC[C@H](C)[C@H](NC(=O)[C@@H](NC(=O)[C@@H](N)Cc1cccc2ccccc12)C(C)C)C(=O)N[C@@H](C)C(=O)O` (H-[1Nal]VIA-OH), the inhibition stood at 23.8%.

For another data set the target is unchanged. Nature of the data set: Inhibition of amyloid beta (1 to 42) (unknown origin) aggregation assessed as protein with turn conformation at 10 uM measured after 24 hrs by circular dichroism analysis (reference value: 11.6%). The arrangement: scale not given: the % may be the effect or the level left.
Details: not given
`CC[C@H](C)[C@H](NC(=O)[C@@H](NC(=O)[C@@H](N)Cc1cccc2ccccc12)C(C)C)C(=O)N[C@@H](C)C(=O)O` (H-[1Nal]VIA-OH): the Activity was determined as 45.3%.

A further data set shares this target. Put plainly: Inhibition of amyloid beta (1 to 42) (unknown origin) assessed as reduction in peptide aggregation at 2 uM measured after 24 hrs by thioflavin-T fluorescence assay relative to control.
Details: not given
In the case of `CC[C@H](C)[C@H](NC(=O)[C@H](Cc1ccccc1)NC(=O)[C@@H](N)Cc1ccccc1)C(=O)N[C@@H](C)C(=O)O` (H-FFIA-OH), the inhibition was 92.2%.
Turning to `CC[C@H](C)[C@H](NC(=O)[C@@H](NC(=O)[C@@H](N)Cc1cccc2ccccc12)C(C)C)C(=O)N[C@@H](C)C(=O)O` (H-[1Nal]VIA-OH), the inhibition was determined as 34%.

The next data set deals with PC-12. Nature of the data set: Neuroprotective activity against amyloid beta 42-induced toxicity in rat PC-12 cells assessed as cell viability at 4 uM measured after 6 hrs by MTT assay (reference value: 74.05%). The format is functional. Conditions: read-out: Activity.
In the case of `CC[C@H](C)[C@H](NC(=O)[C@H](Cc1ccccc1)NC(=O)[C@@H](N)Cc1ccccc1)C(=O)N[C@@H](C)C(=O)O` (H-FFIA-OH), the viability at 4 µM is 100%.
For `CC[C@H](C)[C@H](NC(=O)[C@@H](NC(=O)[C@@H](N)Cc1cccc2ccccc12)C(C)C)C(=O)N[C@@H](C)C(=O)O` (H-[1Nal]VIA-OH), the viability at 4 µM came to 73.2%.

Tested on in a further data set: not listed separately
Nature of the data set: Effective permeability of compound in pH 8 PBS buffer by PAMPA-BBB assay. The format is ADME.
Details: not given
A general note: PAMPA measures passive passage across an artificial lipid membrane.
Turning to `CC[C@H](C)[C@H](NC(=O)[C@H](Cc1ccccc1)NC(=O)[C@@H](N)Cc1ccccc1)C(=O)N[C@@H](C)C(=O)O` (H-FFIA-OH), the Peff result is recorded as “Permeable”.

For a further data set, the system named is Cortical neurone. Put plainly: Cytotoxicity against rat primary cortical neuron assessed as reduction in cell viability at 20 uM measured after 6 hrs by MTT assay. It is filed as cell-based.
Details: not given
Regarding `CC[C@H](C)[C@H](NC(=O)[C@H](Cc1ccccc1)NC(=O)[C@@H](N)Cc1ccccc1)C(=O)N[C@@H](C)C(=O)O` (H-FFIA-OH), the Activity result was “Non-Toxic”.

The next data set concerns the target Amyloid-beta precursor protein (Homo sapiens) (UniProt P05067). Nature of the data set: Binding affinity to amyloid beta (1 to 42) (unknown origin) assessed as absence of fibrillar assembly at 10 uM measured after 24 hrs by HR-TEM analysis.
Details: not given
`CC[C@H](C)[C@H](NC(=O)[C@@H](NC(=O)[C@@H](N)Cc1cccc2ccccc12)C(C)C)C(=O)N[C@@H](C)C(=O)O` (H-[1Nal]VIA-OH): the outcome was inactive.

The next data set shares this target. Nature of the data set: Inhibition of amyloid beta (1 to 42) (unknown origin) aggregation assessed as protein with random coil conformation at 10 uM measured after 24 hrs by circular dichroism analysis (reference value: 5%). Further details: scale not given: the % may be the effect or the level left.
Details: not given
Turning to `CC[C@H](C)[C@H](NC(=O)[C@@H](NC(=O)[C@@H](N)Cc1cccc2ccccc12)C(C)C)C(=O)N[C@@H](C)C(=O)O` (H-[1Nal]VIA-OH), the Activity amounted to 31.6%.

The next data set deals with PC-12. Put plainly: Neuroprotective activity against amyloid beta 42-induced toxicity in rat PC-12 cells assessed as cell viability at 10 uM measured after 6 hrs by MTT assay (reference value: 74.05%). The settings on record: read-out: Activity. The format is functional.
Take `CC[C@H](C)[C@H](NC(=O)[C@H](Cc1ccccc1)NC(=O)[C@@H](N)Cc1ccccc1)C(=O)N[C@@H](C)C(=O)O` (H-FFIA-OH): the viability at 10 µM stood at 83.8%.
Turning to `CC[C@H](C)[C@H](NC(=O)[C@@H](NC(=O)[C@@H](N)Cc1cccc2ccccc12)C(C)C)C(=O)N[C@@H](C)C(=O)O` (H-[1Nal]VIA-OH), the viability at 10 µM was 70.6%.

Another data set deals with Amyloid-beta precursor protein (Homo sapiens) (UniProt P05067). Nature of the data set: Inhibition of amyloid beta (1 to 42) (unknown origin) assessed as reduction in peptide aggregation at 10 uM measured after 24 hrs by thioflavin-T fluorescence assay relative to control.
Details: not given
Turning to `CC[C@H](C)[C@H](NC(=O)[C@H](Cc1ccccc1)NC(=O)[C@@H](N)Cc1ccccc1)C(=O)N[C@@H](C)C(=O)O` (H-FFIA-OH), the inhibition is 100%.
As to `CC[C@H](C)[C@H](NC(=O)[C@@H](NC(=O)[C@@H](N)Cc1cccc2ccccc12)C(C)C)C(=O)N[C@@H](C)C(=O)O` (H-[1Nal]VIA-OH), the inhibition came to 29.1%.

A further data set deals with PC-12. Nature of the data set: Neuroprotective activity against amyloid beta 42-induced toxicity in rat PC-12 cells assessed as cell viability at 2 uM measured after 6 hrs by MTT assay (reference value: 74.05%). The format is functional. Conditions: read-out: Activity.
As for `CC[C@H](C)[C@H](NC(=O)[C@H](Cc1ccccc1)NC(=O)[C@@H](N)Cc1ccccc1)C(=O)N[C@@H](C)C(=O)O` (H-FFIA-OH), the viability at 2 µM was 98%.
With `CC[C@H](C)[C@H](NC(=O)[C@@H](NC(=O)[C@@H](N)Cc1cccc2ccccc12)C(C)C)C(=O)N[C@@H](C)C(=O)O` (H-[1Nal]VIA-OH), the viability at 2 µM was 77%.

One may read the inhibition as the change of the read-out against control, counted positive when it falls.
